Columns and labels:
[1] = Ratio of drug uptake in frontal lobe to cerebellum in anesthetized cynomolgus monkey after 205 mins postinjection; assay type: ADME, organism-based, Macaca fascicularis; details: in vivo
[2] = Ratio of drug uptake in caudate to cerebellum in anesthetized cynomolgus monkey after 55 mins postinjection; assay type: ADME, organism-based, Macaca fascicularis; details: in vivo
[3] = Ratio of drug uptake in caudate to cerebellum in anesthetized cynomolgus monkey after 65 mins postinjection; assay type: ADME, organism-based, Macaca fascicularis; details: in vivo
[4] = Ratio of drug uptake in caudate to cerebellum in anesthetized cynomolgus monkey after 155 mins postinjection; assay type: ADME, organism-based, Macaca fascicularis; details: in vivo
[5] = test system: Medulla; test: Drug uptake in anesthetized cynomolgus monkey brain medulla after 0.5 mins postinjection; assay type: ADME, organism-based, Macaca fascicularis; details: in vivo
[6] = test system: Medulla; test: Drug uptake in anesthetized cynomolgus monkey brain medulla after 18.5 mins postinjection; assay type: ADME, organism-based, Macaca fascicularis; details: in vivo
[7] = test system: Medulla; test: Drug uptake in anesthetized cynomolgus monkey brain medulla after 27.5 mins postinjection; assay type: ADME, organism-based, Macaca fascicularis; details: in vivo
[8] = Ratio of drug uptake in caudate to cerebellum in anesthetized cynomolgus monkey after 225 mins postinjection; assay type: ADME, organism-based, Macaca fascicularis; details: in vivo, 3.75 h
[9] = Ratio of drug uptake in putamen to cerebellum in anesthetized cynomolgus monkey after 75 mins postinjection; assay type: ADME, organism-based, Macaca fascicularis; details: in vivo, 1.25 h
[10] = Ratio of drug uptake in putamen to cerebellum in anesthetized cynomolgus monkey after 155 mins postinjection; assay type: ADME, organism-based, Macaca fascicularis; details: in vivo
[11] = Drug uptake in anesthetized cynomolgus monkey brain cerebellum after 4.5 mins postinjection; assay type: ADME, organism-based, Macaca fascicularis; details: in vivo, 0.075 h
[12] = Drug uptake in anesthetized cynomolgus monkey brain cerebellum after 15.5 mins postinjection; assay type: ADME, organism-based, Macaca fascicularis; details: in vivo
[13] = test system: Caudate; test: Drug uptake in anesthetized cynomolgus monkey brain caudate after 0.5 mins postinjection; assay type: ADME, organism-based, Macaca fascicularis, Caudate nucleus; details: in vivo
[14] = test system: Caudate; test: Drug uptake in anesthetized cynomolgus monkey brain caudate after 3.5 mins postinjection; assay type: ADME, organism-based, Macaca fascicularis, Caudate nucleus; details: in vivo
[15] = test system: Caudate; test: Drug uptake in anesthetized cynomolgus monkey brain caudate after 65 mins postinjection; assay type: ADME, organism-based, Macaca fascicularis, Caudate nucleus; details: in vivo
[16] = test system: Caudate; test: Drug uptake in anesthetized cynomolgus monkey brain caudate after 105 mins postinjection; assay type: ADME, organism-based, Macaca fascicularis, Caudate nucleus; details: in vivo, 1.75 h
[17] = test system: Caudate; test: Drug uptake in anesthetized cynomolgus monkey brain caudate after 115 mins postinjection; assay type: ADME, organism-based, Macaca fascicularis, Caudate nucleus; details: in vivo
[18] = test system: Caudate; test: Drug uptake in anesthetized cynomolgus monkey brain caudate after 125 mins postinjection; assay type: ADME, organism-based, Macaca fascicularis, Caudate nucleus; details: in vivo
[19] = Ratio of drug uptake in occipital lobe to cerebellum in anesthetized cynomolgus monkey after 0.5 mins postinjection; assay type: ADME, organism-based, Macaca fascicularis; details: in vivo
[20] = test system: Thalamus; test: Drug uptake in anesthetized cynomolgus monkey brain thalamus after 22.5 mins postinjection; assay type: ADME, organism-based, Macaca fascicularis; parameters: unit not given here; details: in vivo, 0.375 h
[21] = test system: Putamen; test: Drug uptake in anesthetized cynomolgus monkey brain putamen after 105 mins postinjection; assay type: ADME, organism-based, Macaca fascicularis; parameters: unit not given here; details: in vivo, 1.75 h
[22] = test system: Thalamus; test: Drug uptake in anesthetized cynomolgus monkey brain thalamus after 65 mins postinjection; assay type: ADME, organism-based, Macaca fascicularis; parameters: unit not given here; details: in vivo
[23] = test system: Thalamus; test: Drug uptake in anesthetized cynomolgus monkey brain thalamus after 145 mins postinjection; assay type: ADME, organism-based, Macaca fascicularis; parameters: unit not given here; details: in vivo
[24] = test system: Midbrain; test: Drug uptake in anesthetized cynomolgus monkey brain midbrain after 0.5 mins postinjection; assay type: ADME, organism-based, Macaca fascicularis; parameters: unit not given here; details: in vivo
[25] = test system: Midbrain; test: Drug uptake in anesthetized cynomolgus monkey brain midbrain after 4.5 mins postinjection; assay type: ADME, organism-based, Macaca fascicularis; parameters: unit not given here; details: in vivo, 0.075 h
[26] = test system: Midbrain; test: Drug uptake in anesthetized cynomolgus monkey brain midbrain after 9.5 mins postinjection; assay type: ADME, organism-based, Macaca fascicularis; parameters: unit not given here; details: in vivo
[27] = test system: Midbrain; test: Drug uptake in anesthetized cynomolgus monkey brain midbrain after 12.5 mins postinjection; assay type: ADME, organism-based, Macaca fascicularis; parameters: unit not given here; details: in vivo
[28] = test system: Midbrain; test: Drug uptake in anesthetized cynomolgus monkey brain midbrain after 18.5 mins postinjection; assay type: ADME, organism-based, Macaca fascicularis; parameters: unit not given here; details: in vivo
[29] = test system: Midbrain; test: Drug uptake in anesthetized cynomolgus monkey brain midbrain after 27.5 mins postinjection; assay type: ADME, organism-based, Macaca fascicularis; parameters: unit not given here; details: in vivo
[30] = test system: Midbrain; test: Drug uptake in anesthetized cynomolgus monkey brain midbrain after 35 mins postinjection; assay type: ADME, organism-based, Macaca fascicularis; parameters: unit not given here; details: in vivo
[31] = test system: Midbrain; test: Drug uptake in anesthetized cynomolgus monkey brain midbrain after 55 mins postinjection; assay type: ADME, organism-based, Macaca fascicularis; parameters: unit not given here; details: in vivo
[32] = test system: Midbrain; test: Drug uptake in anesthetized cynomolgus monkey brain midbrain after 125 mins postinjection; assay type: ADME, organism-based, Macaca fascicularis; parameters: unit not given here; details: in vivo
[33] = Ratio of drug uptake in midbrain to cerebellum in anesthetized cynomolgus monkey after 135 mins postinjection; assay type: ADME, organism-based, Macaca fascicularis; details: in vivo, 2.25 h

O=C(OCCC[18F])C1C2CCC(CC1c1cccc(/C=C\I)c1)N2 (stereo not drawn)
Ratio [1]: 1 | Ratio [2]: 0.9 | Ratio [3]: 1 | Ratio [4]: 1.4 | Drug uptake [5]: 0.01 | Drug uptake [6]: 4.6 | Drug uptake [7]: 5.08 | Ratio [8]: 1.3 | Ratio [9]: 1.3 | Ratio [10]: 1.6 | Drug uptake [11]: 2.5 | Drug uptake [12]: 4.75 | Drug uptake [13]: 0.01 | Drug uptake [14]: 1.15 | Drug uptake [15]: 3.99 | Drug uptake [16]: 3.7 | Drug uptake [17]: 3.61 | Drug uptake [18]: 3.51 | Ratio [19]: 0.8 | Drug uptake [20]: 4.46 | Drug uptake [21]: 4.52 | Drug uptake [22]: 4.79 | Drug uptake [23]: 3.93 | Drug uptake [24]: 0.01 | Drug uptake [25]: 2.42 | Drug uptake [26]: 4 | Drug uptake [27]: 4.11 | Drug uptake [28]: 4.65 | Drug uptake [29]: 5.04 | Drug uptake [30]: 5.01 | Drug uptake [31]: 4.98 | Drug uptake [32]: 4.58 | Ratio [33]: 1.7
